Marks after values point to notes of the source that are not given here.
Columns and labels:
[1] = test system: Colletotrichum orbiculare; experiment: Test B: cucumber Colletotrichum anthracnose, preventive spray on cucumber seedlings
Rhizoctonia oryzae = experiment: Test G: turf brown patch, preventive spray on creeping bent grass seedlings
Description: (the causal agent of turf brown patch) and incubated in a saturated atmosphere at 27° C. for 24 h, and then moved to a growth chamber at 27° C. for 5 days, after which disease ratings were made.

Botrytis cinerea = experiment: Test E: tomato botrytis, preventive spray on tomato seedlings
Pythium aphanidermatum = experiment: Test A: bluegrass pythium blight, preventive spray on bluegrass seedlings; conditions: for Test A disease control rating: 200 ppm
[2] = test system: Erysiphe graminis f. sp. tritici; experiment: Test L: wheat powdery mildew, preventive spray on wheat seedlings
Plasmopara viticola = experiment: Test D: grape downy mildew, spray after inoculation of grape seedlings; format: in vivo; conditions: 200 ppm
Description: Upon removal, disease ratings were made. […] A dash (-) indicates no test results.

Sclerotinia sclerotiorum = experiment: Test C: cucumber white mold, preventive spray on cucumber seedlings; conditions: 200 ppm
Septoria nodorum = experiment: Test H: wheat glum blotch, preventive spray on wheat seedlings
Description: (the causal agent of wheat glum blotch) and incubated in a saturated atmosphere at 20° C. for 48 h, and then moved to a growth chamber at 22° C. for 5 days, after which disease ratings were made.

fusarium graminearium = experiment: Test I: wheat head scab, preventive spray on wheat seedlings; conditions: for Test I disease control rating: 200 ppm
Description: (the causal agent of wheat head scab) and incubated in a saturated atmosphere at 20° C. for 72 h, and then moved to a growth chamber at 22° C. for 5 days, after which disease ratings were made.

Septoria tritici = experiment: Test J: wheat leaf blotch, preventive spray on wheat seedlings; format: in vivo
Description: A dash (-) indicates no test results.

Phytophthora infestans = experiment: whole plant or invertebrate; format: in vivo; conditions: for Test F disease control rating: 200 ppm
[3] = test system: Puccinia recondita f. sp. tritici; experiment: Test K: wheat leaf rust, preventive spray on wheat seedlings
[4] = 100 = 100% disease control, 0 = no control
[5] = 40 ppm (marked *), 100 = 100% disease control, 0 = no control

Structure (SMILES) | Test B disease control rating ([1]; 200 ppm) | Test G disease control rating (Rhizoctonia oryzae; 200 ppm) | Test E disease control rating (Botrytis cinerea; 200 ppm) | Test A disease control rating (Pythium aphanidermatum) | Test L disease control rating ([2]; 200 ppm) | Test D disease control rating (Plasmopara viticola) | Test C disease control rating (Sclerotinia sclerotiorum) | Test H disease control rating (Septoria nodorum; 200 ppm) | Test I disease control rating (fusarium graminearium) | Test J disease control rating (Septoria tritici; 200 ppm) | Test F disease control rating (Phytophthora infestans) | Test K disease control rating ([3]; 200 ppm) | also measured
CC(C)Cn1c(-c2ccc(F)cc2Cl)c(Cl)nc(-n2cccn2)c1=O [Compound 302, 5-Chloro-6-(2-chloro-4-fluorophenyl)-1-(2-methylpropyl)-3-(1H-pyrazol-1-yl)-2(1H)-pyrazinone] |  |  |  |  |  |  |  |  |  |  |  |  | pest or weed control at 40 ppm ([1]; Colletotrichum orbiculare, in Cucumis sativus, 144 h, read-out: Test B disease control rating, 40 ppm (marked *), 100 = 100% disease control, 0 = no control): 98%; pest or weed control at 40 ppm (Rhizoctonia oryzae; Waitea circinata, in Agrostis stolonifera, topical, 144 h, read-out: Test G disease control rating, 40 ppm (marked *), 100 = 100% disease control, 0 = no control): 94%; pest or weed control at 40 ppm (Botrytis cinerea; Botrytis cinerea, in Solanum lycopersicum, topical, 72 h, read-out: Test E disease control rating): 100%; pest or weed control at 200 ppm (Pythium aphanidermatum; Pythium aphanidermatum, 120 h, read-out: Test A disease control rating): 0%; pest or weed control at 40 ppm ([2]; Blumeria graminis, in Triticum aestivum, 168 h, read-out: Test L disease control rating, 40 ppm (marked *), 100 = 100% disease control, 0 = no control): 98%; Test D disease control rating (Plasmopara viticola; [4]): 0%; Test C disease control rating (Sclerotinia sclerotiorum; [4]): 60%; pest or weed control at 40 ppm (Septoria nodorum; Parastagonospora nodorum, in Triticum aestivum, topical, 168 h, read-out: Test H disease control rating, 40 ppm (marked *), 100 = 100% disease control, 0 = no control): 99%; pest or weed control at 200 ppm (fusarium graminearium; Fusarium, in Triticum aestivum, topical, 192 h, read-out: Test I disease control rating, 200 ppm, 100 = 100% disease control, 0 = no control): 0%; pest or weed control at 40 ppm (Septoria tritici; Zymoseptoria tritici, 528 h, 40 ppm (marked *), 100 = 100% disease control, 0 = no control, read-out: Test J disease control rating): 100%; pest or weed control at 200 ppm (Phytophthora infestans; Phytophthora infestans, in Solanum lycopersicum, topical, 144 h, read-out: Test F disease control rating): 0%; pest or weed control at 40 ppm ([3]; Puccinia recondita, in Triticum aestivum, 192 h, read-out: Test K disease control rating): 100%
CC(C)Cn1c(-c2ccc(F)cc2Cl)c(Cl)nc(-n2cccn2)c1=O [Compound 303, 5-Chloro-6-(2-chloro-4-fluorophenyl)-1-(2-methylpropyl)-3-(1H-pyrazol-1-yl)-2(1H)-pyrazinone] |  |  |  |  |  |  |  |  |  |  |  |  | Test B disease control rating [1, 5]: 100* %; Test G disease control rating (Rhizoctonia oryzae; [5]): 100* %; Test E disease control rating (Botrytis cinerea; [5]): 100* %; Test A disease control rating (Pythium aphanidermatum; [4]): 0%; Test L disease control rating [2, 5]: 100* %; Test D disease control rating (Plasmopara viticola; [4]): 58%; Test C disease control rating (Sclerotinia sclerotiorum; [4]): 94%; Test H disease control rating (Septoria nodorum; [5]): 100* %; Test I disease control rating (fusarium graminearium; [4]): 0%; Test J disease control rating (Septoria tritici; [5]): 100* %; Test F disease control rating (Phytophthora infestans; [4]): 0%; Test K disease control rating [3, 5]: 100* %
CC(C)Cn1c(-c2c(F)cc(F)cc2F)c(Cl)nc(-n2cccn2)c1=O [compound 7] | 100% | 95% | 100% | 51% | 100% | 88% | 95% | 100% | 99% | 100% | 0% | 100% | 
O=c1c(-n2cccn2)nc(Cl)c(-c2c(F)cccc2F)n1CC1CC1 [compound 18] | 100% | 100% | 100% | 0% | 100% | 98% | 99% | 100% | 0% | 100% | 0% | 100% | 
CCC(C)Cn1c(-c2c(F)cc(F)cc2F)c(Cl)nc(-n2cccn2)c1=O (stereo not drawn) [compound 19] | 100% | 100% | 100% | 0% | 100% | 46% | 98% | 100% | 90% | 100% | 27% | 100% | 
CC(C)Cn1c(-c2ccc(Cl)cc2)c(Cl)nc(-n2cncn2)c1=O [compound 23] | 21% | 33% | 99% | 0% | 0% | 0% | 0% | 98% | 68% | 98% | 0% | 68% | 
Cc1nc(C)n(-c2nc(Cl)c(-c3ccc(Cl)cc3)n(CC(C)C)c2=O)n1 [compound 24] | 0% | 0% | 0% | 0% | 0% | 5% | 0% | 0% | 0% | 80% | 0% | 0% | 

— patent publication US20080194585A1, “Fungicidal Pyrazine Derivatives” (priority 2005, published 2008)
